# Data published in patent US8623995B2, “Peptide conjugates and fluorescence detection methods for intracellular caspase assay” (Applied Biosystems, LLC, priority 2001, dated 2014).
# The star is where a group is joined. Cbz = O=C(OCc1ccccc1)*; CH2F = FC*
# Experiments:
# [1] = test system: NT-2 cells; experiment: Intracellular caspase assay on FMAT 8100 HTS System with peptide conjugate 9: apoptosis induction; type: cell-based, Human
# Experimental: (§1) One method for introducing the peptide conjugates into cells to induce apoptosis and measure caspase activity includes the following steps: • 1. Plate the eukaryotic cells in RPMI 1640 media in the wells of a tissue culture-treated 96-well plate at 37° C. The cells will adhere to well bottoms in 1 to 24 hours. Any number of different sample cells or any combination of cells, inhibitors or apoptosis inducers can be assayed. Typically 10,000 cells per well are plated in about 100 μl of tissue culture media. • 2. Add an apoptosis inducer, e.g. camptothecin or staurosporine, dissolved in media and/or solvent. Different concentrations can be used to study dose-response. • 3. Let the cells stand for about 24 hours at 37° C., depending on the inducer. • 4. Add the peptide conjugate, dissolved in media and/or solvent in a range of 1 to 10 μM, e.g. 2.5 μM, to every well, including controls. Let stand for about 90 minutes at 37° C. • 5. Transfer plates to a fluorescent plate reading device, cell sorter, flow cytometer, laser imager, microscope, or other device and read the content of the wells.
# (§2) A data spreadsheet assigns numerical values of fluorescence intensity and peak heights. The greyscale image has intensity content, like an autoradiogram. […] The cells are simply counted by a cell counting algorithm as either blue or red depending on the ratio of channel 2 to channel 1 fluorescence intensity, and independent of intensity values. The fraction of apoptotic cells is determined by identifying the apoptotic population in each well and dividing by the total number of cells detected. The ratio of red (channel 2) to blue (channel 1) inversely correlates to the apoptotic fraction. In other words:
# [formula] […] Effects of introducing apoptosis inducers and caspase inhibitors to different cells under variable conditions can thus be measured by the mix-and-read protocols on the FMAT 8100 System. A dose response is determined when this fraction (% apoptotic) is plotted as a function of the concentration of camptothecin in the well (FIG. 11), and other apoptosis inducers (FIGS. 12 and 13). […]
# [2] = test system: HeLa cells; experiment: Intracellular caspase assay with peptide conjugate 9: apoptosis induction; type: cell-based, Human; details: peptide conjugate 9 (FIG. 13)
# Experimental: as §1, with “Plate the eukaryotic cells in RPMI 1640 media in the wells of a tissue culture-treated 96-well plate at 37° C.” left out, “Add the peptide conjugate, dissolved in media and/or solvent in a range of 1 to 10 μM, e.g. 2.5 μM, to every well, including controls.” left out
# as §2, with “The ratio of red (channel 2) to blue (channel 1) inversely correlates to the apoptotic fraction. In other words:” left out
# [3] = test system: Jurkat cells; experiment: as above; type: cell-based, Human; details: peptide conjugate 9 (FIG. 13)
# Experimental: as §1, with “Plate the eukaryotic cells in RPMI 1640 media in the wells of a tissue culture-treated 96-well plate at 37° C.” left out, “Add the peptide conjugate, dissolved in media and/or solvent in a range of 1 to 10 μM, e.g. 2.5 μM, to every well, including controls.” left out
# as §2, with “The ratio of red (channel 2) to blue (channel 1) inversely correlates to the apoptotic fraction. In other words:” left out
# [4] = molecular target: T1, caspase (Homo sapiens, UniProt P42574); experiment: Intracellular caspase assay on FMAT 8100: caspase inhibitors on cleavage of peptide conjugate 9 in NT-2 cells; type: cell-based; details: inhibitor at 50 μM, NT-2 cells with CMP to induce apoptosis (FIG. 10)
# T1 construct: endogenous in cells; host or cells: NT-2 cells
# T1 sequence (P42574 29-175 limits assumed): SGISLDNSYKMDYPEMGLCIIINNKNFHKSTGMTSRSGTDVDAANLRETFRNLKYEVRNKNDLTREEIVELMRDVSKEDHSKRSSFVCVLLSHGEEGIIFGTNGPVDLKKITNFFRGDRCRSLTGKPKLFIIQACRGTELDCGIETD
# T1 sequence (P42574 176-277 limits assumed): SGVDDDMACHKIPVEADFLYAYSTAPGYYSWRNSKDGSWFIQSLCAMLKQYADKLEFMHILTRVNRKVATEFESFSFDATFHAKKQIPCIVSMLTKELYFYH
# Experimental: as §1, with “Plate the eukaryotic cells in RPMI 1640 media in the wells of a tissue culture-treated 96-well plate at 37° C.” left out, “Add the peptide conjugate, dissolved in media and/or solvent in a range of 1 to 10 μM, e.g. 2.5 μM, to every well, including controls.” left out
# The plate was incubated at 37° C. for 90 minutes.
compound,measurement,setting,value
CC[C@@]1(O)C(=O)OCc2c1cc1n(c2=O)Cc2cc3ccccc3nc2-1 [camptothecin],"Induction of apoptosis / caspase activity (donor dye emission, channel 1)","[1]; 500 nM, peptide conjugate 9 (FIG. 9)",caspase activity is evident
same,Dose response: fraction of apoptotic cells,"[1]; 0.0001 to 10 μM, 24 hours, peptide conjugate 9 (FIG. 11)",fraction of apoptotic cells correlates with camptothecin concentration
COc1cccc2c1C(=O)c1c(O)c3c(c(O)c1C2=O)C[C@@](O)(C(=O)CO)C[C@@H]3O[C@H]1C[C@H](N)[C@H](O)[C@H](C)O1 [doxirubicin],Concentration above which most of the cells were detected as apoptotic,[1]; peptide conjugate 9 (FIG. 12),about 0.1 μM
CN[C@@H]1C[C@H]2O[C@@](C)([C@@H]1OC)n1c3ccccc3c3c4c(c5c6ccccc6n2c5c31)C(=O)NC4 [staurosporine],Threshold concentration above which fraction of apoptotic cells correlates with concentration,[2],~0.5 µM
same,Threshold concentration above which fraction of apoptotic cells correlates with concentration,[3],about 0.05 μM
Cbz-Val-Ala-Asp-CH2F,Suppression of cleavage of peptide conjugate 9,[4],complete suppression
